Measurements: patent US8278304B2, “Substituted 4-hydroxypyrimidine-5-carboxamides” (Merck Sharp & Dohme Corp., priority 2008, dated 2012)
Counter-ions that a name gives are not always drawn.

Molecular target: T1, PHD2 (Homo sapiens, UniProt Q9GZT9)
T1 construct: FLAG-tagged full length PHD2 expressed in and purified from baculovirus-infected Sf9 cells; FLAG; made in house; host or cells: baculovirus-infected Sf9 cells
Test: PHD2 / HIF-1α peptide hydroxylation assay, time resolved fluorescence (VHL complex detection)
Format: biochemical
Conditions: FLAG-tagged full length PHD2; 0.2 μM 2-oxoglutarate, 0.5 μM HIF-1α peptide; read-out: PHD2 Activity (PHD2 binding activity expressed as IC50 (nM))
Protocol: To each well of a 96-well plate was added 1 μL of test compound in DMSO and 20 μl of assay buffer (50 mM Tris pH 7.4/0.01% Tween-20/0.1 mg/ml bovine serum albumin/10 μM ferrous sulfate/1 mM sodium ascorbate/20 μg/ml catalase) containing 0.15 μg/ml FLAG-tagged full length PHD2 expressed in and purified from baculovirus-infected Sf9 cells. After a 30 min preincubation at room temperature, the enzymatic reactions were initiated by the addition of 4 μL of substrates (final concentrations of 0.2 μM 2-oxoglutarate and 0.5 μM HIF-1α peptide biotinyl-[…]).

T1 sequence (Q9GZT9 whole entry): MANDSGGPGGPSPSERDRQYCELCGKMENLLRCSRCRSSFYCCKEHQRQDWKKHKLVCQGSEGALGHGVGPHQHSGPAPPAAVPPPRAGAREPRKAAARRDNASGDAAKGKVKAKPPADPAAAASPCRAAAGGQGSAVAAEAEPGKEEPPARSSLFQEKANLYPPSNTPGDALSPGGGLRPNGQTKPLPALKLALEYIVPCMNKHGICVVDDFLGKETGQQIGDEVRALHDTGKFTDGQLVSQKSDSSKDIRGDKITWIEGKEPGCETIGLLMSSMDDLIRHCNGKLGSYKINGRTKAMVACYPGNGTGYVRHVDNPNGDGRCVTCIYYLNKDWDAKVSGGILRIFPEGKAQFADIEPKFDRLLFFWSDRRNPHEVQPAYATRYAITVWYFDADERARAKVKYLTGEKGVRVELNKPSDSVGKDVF

Q: Which IC50 does the source give for `CC(C)(C)C1CCC(NC(=O)c2cnc(-n3cccn3)nc2O)CC1` (stereo not shown) [Example 82, N-(4-tert-butylcyclohexyl)-4-hydroxy-2-(1H-pyrazol-1-yl)pyrimidine-5-carboxamide] here?
A: Its IC50 is 10 to 100 nM.

Q: With `Cc1cnc(CNC(=O)c2cnc(-n3cccn3)nc2O)cn1` [Example 66, 4-Hydroxy-N-[(5-methylpyrazin-2-yl)methyl]-2-(1H-pyrazol-1-yl)pyrimidine-5-carboxamide] as the molecule, how does the IC50 read?
A: The IC50 was 100 to 1000 nM.

Q: Which IC50 does the source give for `O=C(NCc1ccc(Br)cc1)c1cnc(-n2cccn2)nc1O` [Example 9, N-(4-bromobenzyl)-4-hydroxy-2-(1H-pyrazol-1-yl)pyrimidine-5-carboxamide] here?
A: The IC50 was ≤ 10 nM.

Q: How did the IC50 turn out when `COc1ccc(C(NC(=O)c2cnc(-n3cccn3)nc2O)c2ccc(SC)cc2)cc1` (stereo not shown) [Example 168, 4-hydroxy-N-{(4-methoxyphenyl)[4-(methylsulfanyl)phenyl]methyl}-2-(1H-pyrazol-1-yl)pyrimidine-5-carboxamide] was run?
A: The IC50 was ≤ 10 nM.

Q: For `O=C(NC1CCCCC1)c1cnc(-c2cccnn2)nc1O` [Example 135, N-cyclohexyl-4-hydroxy-2-(pyridazin-3-yl)pyrimidine-5-carboxamide], which IC50 is on record?
A: The IC50 was 10 to 100 nM.

Q: With `O=C(NCc1ccc2c(c1)CCO2)c1cnc(-n2cccn2)nc1O` [Example 101, N-(2,3-dihydro-1-benzofuran-5-ylmethyl)-4-hydroxy-2-(1H-pyrazol-1-yl)pyrimidine-5-carboxamide] as the molecule, how does the IC50 read?
A: Its IC50 is ≤ 10 nM.

Q: With `O=C(N[C@H]1CCc2ccccc21)c1cnc(-n2cccn2)nc1O` [Example 119, N-[(1S)-2,3-dihydro-1H-inden-1-yl]-4-hydroxy-2-(1H-pyrazol-1-yl)pyrimidine-5-carboxamide] as the molecule, how does the IC50 read?
A: Its IC50 is 10 to 100 nM.

Q: How did the IC50 turn out when `O=C(NCc1nc2ccccc2s1)c1cnc(-n2cccn2)nc1O` [Example 55, N-(1,3-benzothiazol-2-ylmethyl)-4-hydroxy-2-(1H-pyrazol-1-yl)pyrimidine-5-carboxamide] was run?
A: Its IC50 is ≤ 10 nM.

Q: For `C[C@H](NC(=O)c1cnc(-n2cccn2)nc1O)c1ccc2c(c1)OCCO2` [Example 132, N-[(1S)-1-(2,3-dihydro-1,4-benzodioxin-6-yl)ethyl]-4-hydroxy-2-(1H-pyrazol-1-yl)pyrimidine-5-carboxamide], which IC50 is on record?
A: The IC50 was ≤ 10 nM.

Q: For `O=C(N[C@H](CO)c1ccccc1)c1cnc(-n2cccn2)nc1O` [Example 122, 4-hydroxy-N-[(1S)-2-hydroxy-1-phenylethyl]-2-(1H-pyrazol-1-yl)pyrimidine-5-carboxamide], which IC50 is on record?
A: Its IC50 is 10 to 100 nM.

Q: For `Cc1ccc([C@H](C)NC(=O)c2cnc(-n3cccn3)nc2O)cc1` [Example 79, 4-Hydroxy-N-[(1S)-1-(4-methylphenyl)ethyl]-2-(1H-pyrazol-1-yl)pyrimidine-5-carboxamide], which IC50 is on record?
A: Its IC50 is ≤ 10 nM.

Q: How did the IC50 turn out when `O=C(NCc1ccc(Cl)nc1)c1cnc(-n2cccn2)nc1O` [Example 59, N-[(6-chloropyridin-3-yl)methyl]-4-hydroxy-2-(1H-pyrazol-1-yl)pyrimidine-5-carboxamide] was run?
A: The IC50 was 10 to 100 nM.

Q: Which IC50 does the source give for `C[C@H](NC(=O)c1cnc(-c2cccnn2)nc1O)c1ccc(-c2cccc3cnccc23)cc1` [Example 185, 4-hydroxy-N-[(1S)-1-(4-isoquinolin-5-ylphenyl)ethyl]-2-pyridazin-3-ylpyrimidine-5-carboxamide] here?
A: Its IC50 is ≤ 10 nM.

Q: How did the IC50 turn out when `CC(C)(NC(=O)c1cnc(-n2cccn2)nc1O)C(=O)O` [Example 188, N-{[4-hydroxy-2-(1H-pyrazol-1-yl)pyrimidin-5-yl]carbonyl}-2-methylalanine] was run?
A: Its IC50 is 100 to 1000 nM.

Q: Which IC50 does the source give for `COc1ccc(C(NC(=O)c2cnc(-c3ccccn3)nc2O)c2ccc(OC)cc2)cc1` [Example 14, N-[bis(4-methoxyphenyl)methyl]-4-hydroxy-2-pyridin-2-ylpyrimidine-5-carboxamide] here?
A: Its IC50 is ≤ 10 nM.

Q: With `C[C@H](NC(=O)c1cnc(-n2cccn2)nc1O)c1ccc(Oc2ccccc2)cc1` [Example 129, 4-hydroxy-N-[(1S)-1-(4-phenoxyphenyl)ethyl]-2-(1H-pyrazol-1-yl)pyrimidine-5-carboxamide] as the molecule, how does the IC50 read?
A: Its IC50 is ≤ 10 nM.

Q: With `O=C(NCc1ccc(Oc2ccccc2)cc1)c1cnc(-n2cccn2)nc1O` [Example 93, 4-hydroxy-N-(4-phenoxybenzyl)-2-(1H-pyrazol-1-yl)pyrimidine-5-carboxamide] as the molecule, how does the IC50 read?
A: The IC50 was ≤ 10 nM.

Q: Which IC50 does the source give for `Cc1nc(-c2ncc(C(=O)NCCc3ccc(F)cc3)c(O)n2)cs1` [Example 32, N-[2-(4-fluorophenyl)ethyl]-4-hydroxy-2-(2-methyl-1,3-thiazol-4-yl)pyrimidine-5-carboxamide] here?
A: The IC50 was 100 to 1000 nM.

Q: `C[C@H](NC(=O)c1cnc(-c2cccnn2)nc1O)c1ccc(Br)cc1` [Example 25, N-[(1S)-1-(4-bromophenyl)ethyl]-4-hydroxy-2-pyridazin-3-ylpyrimidine-5-carboxamide] was tested. Which IC50 did it give?
A: Its IC50 is ≤ 10 nM.

Q: How did the IC50 turn out when `O=C(NCc1ccc(C(F)(F)F)cc1)c1cnc(-c2cnccn2)nc1O` [Example 20, 4-Hydroxy-2-pyrazin-2-yl-N-[4-(trifluoromethyl)benzyl]pyrimidine-5-carboxamide] was run?
A: Its IC50 is 10 to 100 nM.

Q: How did the IC50 turn out when `O=C(NC(c1ccccc1)c1ccc(C(F)(F)F)nc1)c1cnc(-n2cccn2)nc1O` (single isomer, unassigned) [Example 142, 4-hydroxy-N-{phenyl[6-(trifluoromethyl)pyridin-3-yl]methyl}-2-(1H-pyrazol-1-yl)pyrimidine-5-carboxamide] was run?
A: Its IC50 is ≤ 10 nM.

Q: For `O=C(N[C@@H]1CONC1=O)c1cnc(-n2cccn2)nc1O` [Example 83, 4-Hydroxy-N-[(4R)-3-oxoisoxazolidin-4-yl]-2-(1H-pyrazol-1-yl)pyrimidine-5-carboxamide], which IC50 is on record?
A: Its IC50 is 100 to 1000 nM.

Q: Which IC50 does the source give for `Cc1ccc([C@@H](C)NC(=O)c2cnc(-n3cccn3)nc2O)cc1` [Example 78, 4-Hydroxy-N-[(1R)-1-(4-methylphenyl)ethyl]-2-(1H-pyrazol-1-yl)pyrimidine-5-carboxamide] here?
A: The IC50 was 10 to 100 nM.

Q: `COc1ccc(C(NC(=O)c2cnc(-c3cccnn3)nc2O)c2nc(C)cs2)cc1` (single isomer, unassigned) [Example 145, 4-hydroxy-N-[(4-methoxyphenyl)(4-methyl-1,3-thiazol-2-yl)methyl]-2-(pyridazin-3-yl)pyrimidine-5-carboxamide] was tested. Which IC50 did it give?
A: The IC50 was ≤ 10 nM.

Q: For `O=C(NC(c1ccccc1)c1ccccc1)c1cnc(-n2cncn2)nc1O` [Example 46, N-(diphenylmethyl)-4-hydroxy-2-(1H-1,2,4-triazol-1-yl)pyrimidine-5-carboxamide], which IC50 is on record?
A: Its IC50 is 100 to 1000 nM.

Q: For `O=C(NCc1ccc(F)cc1)c1cnc(-c2ccc(C(F)(F)F)cn2)nc1O` [Example 11, N-(4-fluorobenzyl)-4-hydroxy-2-[5-(trifluoromethyl)pyridin-2-yl]pyrimidine-5-carboxamide], which IC50 is on record?
A: The IC50 was 1000 to 10000 nM.

Q: `CC(C)(O)[C@H](NC(=O)c1cnc(-n2cccn2)nc1O)c1ccccc1` [Example 128, 4-hydroxy-N-[(1R)-2-hydroxy-2-methyl-1-phenylpropyl]-2-(1H-pyrazol-1-yl)pyrimidine-5-carboxamide] was tested. Which IC50 did it give?
A: Its IC50 is ≤ 10 nM.

Q: How did the IC50 turn out when `COc1ccc(C(NC(=O)c2cnc(-c3cccnn3)nc2O)c2cccc(C#N)c2)cc1` (single isomer, unassigned) [Example 148, N-[(3-cyanophenyl)(4-methoxyphenyl)methyl]-4-hydroxy-2-(pyridazin-3-yl)pyrimidine-5-carboxamide] was run?
A: Its IC50 is ≤ 10 nM.

Q: For `O=C(NCc1ccc(-c2cccc(F)c2)nc1)c1cnc(-n2cccn2)nc1O` [Example 107, N-{[6-(3-fluorophenyl)pyridin-3-yl]methyl}-4-hydroxy-2-(1H-pyrazol-1-yl)pyrimidine-5-carboxamide trifluoroacetate (salt)], which IC50 is on record?
A: Its IC50 is ≤ 10 nM.

Q: `COc1ccc(C(NC(=O)c2cnc(-c3cccnn3)nc2O)c2cccc(C)n2)c(OC)c1` (single isomer, unassigned) [Example 149, N-[(2,4-dimethoxyphenyl)(6-methylpyridin-2-yl)methyl]-4-hydroxy-2-(pyridazin-3-yl)pyrimidine-5-carboxamide] was tested. Which IC50 did it give?
A: The IC50 was ≤ 10 nM.

Q: Which IC50 does the source give for `COCc1ccc(C(NC(=O)c2cnc(-c3cccnn3)nc2O)c2ccc(OC)cc2)cc1` (single isomer, unassigned) [Example 182, 4-Hydroxy-N-[[4-(methoxymethyl)phenyl](4-methoxyphenyl)methyl]-2-pyridazin-3-ylpyrimidine-5-carboxamide] here?
A: Its IC50 is ≤ 10 nM.

Q: For `O=C(NCc1ccc(-c2ccc(F)cc2)cc1)c1cnc(-n2cccn2)nc1O` [Example 63, N-[(4′-fluorobiphenyl-4-yl)methyl]-4-hydroxy-2-(1H-pyrazol-1-yl)pyrimidine-5-carboxamide], which IC50 is on record?
A: The IC50 was ≤ 10 nM.

Q: How did the IC50 turn out when `O=C(NC1(c2ccccc2)CC1)c1cnc(-n2cccn2)nc1O` [Example 87, 4-Hydroxy-N-(1-phenylcyclopropyl)-2-(1H-pyrazol-1-yl)pyrimidine-5-carboxamide] was run?
A: The IC50 was ≤ 10 nM.

Q: With `CCC(CC)(NC(=O)c1cnc(-n2cccn2)nc1O)c1ccccc1` [Example 98, N-(1-ethyl-1-phenylpropyl)-4-hydroxy-2-(1H-pyrazol-1-yl)pyrimidine-5-carboxamide] as the molecule, how does the IC50 read?
A: The IC50 was ≤ 10 nM.

Q: How did the IC50 turn out when `COc1ccc(C(NC(=O)c2cnc(-c3cccnn3)nc2O)c2ccc(F)cc2)c(OC)n1` (stereo not shown) [Example 177, N-[(2,6-dimethoxypyridin-3-yl)(4-fluorophenyl)methyl]-4-hydroxy-2-(pyridazin-3-yl)pyrimidine-5-carboxamide] was run?
A: Its IC50 is ≤ 10 nM.

Q: For `CCN(NC(=O)c1cnc(-n2cccn2)nc1O)c1ccccc1` [Example 76, N′-Ethyl-4-hydroxy-N′-phenyl-2-(1H-pyrazol-1-yl)pyrimidine-5-carbohydrazide trifluoroacetate (salt)], which IC50 is on record?
A: The IC50 was 10 to 100 nM.

Q: How did the IC50 turn out when `COc1ccc(C(NC(=O)c2cnc(-c3cccnn3)nc2O)c2ccc(OC)cc2OC)c(OC)c1` [Example 174, N-[bis(2,4-dimethoxyphenyl)methyl]-4-hydroxy-2-(pyridazin-3-yl)pyrimidine-5-carboxamide] was run?
A: The IC50 was ≤ 10 nM.
